The record followed here is patent publication US10508120B2, “TYK2 inhibitors and uses thereof” (Nimbus Lakshmi, Inc., priority 2017, dated 2019).

The target of assay [1] is human TYK2 (JH2domain-pseudokinase) (Homo sapiens (Human), UniProt P29597). The assay can be described thus: TYK2 JH2 Domain Binding Assay (KINOMEscan). The gist of the method:
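Competition binding of an NFkB-DBD fusion of human TYK2 JH2 (G556–D888), expressed in HEK293 and used as crude extract at <0.1 nM, against immobilized ligand beads; 1 h at room temperature in PBS/Tween/DTT/BSA buffer, 0.9% DMSO.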

In assay [2] the target is JAK2 kinase domain (JH1) (Homo sapiens (Human), UniProt O60674). The assay can be described thus: JAK2 Radioactive Kinase Assay. To be noted: read-out: JAK2 JH1% Inhibition @ 10 μM. Type of assay: biochemical. The gist of the method: (§1)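 Single-point screen: 10 μM test compound, radioactive kinase read-out, percent inhibition reported for each kinase domain.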
JAK2 kinase domain (JH1), sequence (O60674 849-1124): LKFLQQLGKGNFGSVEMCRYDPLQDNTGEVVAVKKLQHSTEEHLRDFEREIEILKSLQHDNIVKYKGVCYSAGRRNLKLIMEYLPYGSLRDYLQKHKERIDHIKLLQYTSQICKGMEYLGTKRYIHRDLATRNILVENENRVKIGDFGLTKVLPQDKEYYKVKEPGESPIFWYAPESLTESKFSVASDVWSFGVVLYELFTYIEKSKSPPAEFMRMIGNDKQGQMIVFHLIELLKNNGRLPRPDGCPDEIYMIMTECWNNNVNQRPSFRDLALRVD
Assay [3] has as its target Tyk2 kinase domain (DH1) (Homo sapiens (Human), UniProt P29597). The assay can be described thus: Tyk2 Radioactive Kinase Assay. Type of assay: biochemical. To be noted: read-out: Tyk2 JH1% Inhibition @ 10 μM. The gist of the method: as §1

Where two headings read alike, the source gives them in different places. Bounds are passed on as bounds.

human TYK2 (JH2domain-pseudokinase), sequence (P29597 556-888): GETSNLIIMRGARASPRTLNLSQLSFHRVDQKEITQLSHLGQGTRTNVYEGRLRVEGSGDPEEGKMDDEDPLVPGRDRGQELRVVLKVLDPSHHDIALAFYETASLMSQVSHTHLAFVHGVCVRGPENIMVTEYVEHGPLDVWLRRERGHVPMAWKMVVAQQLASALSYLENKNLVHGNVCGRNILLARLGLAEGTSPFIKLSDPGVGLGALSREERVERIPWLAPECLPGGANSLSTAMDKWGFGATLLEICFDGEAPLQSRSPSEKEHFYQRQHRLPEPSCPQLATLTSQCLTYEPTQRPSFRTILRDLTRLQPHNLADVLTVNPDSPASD
Tyk2 kinase domain (DH1), sequence (P29597 897-1176): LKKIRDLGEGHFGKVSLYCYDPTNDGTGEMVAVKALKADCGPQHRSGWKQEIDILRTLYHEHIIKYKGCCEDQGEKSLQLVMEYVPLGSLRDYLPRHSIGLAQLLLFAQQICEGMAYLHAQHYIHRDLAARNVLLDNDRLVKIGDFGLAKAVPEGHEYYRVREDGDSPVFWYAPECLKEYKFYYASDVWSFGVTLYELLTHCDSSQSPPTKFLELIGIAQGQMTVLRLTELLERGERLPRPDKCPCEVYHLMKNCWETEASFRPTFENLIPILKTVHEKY

Usually Kd stands for the concentration at which binding is half-saturated. Usually inhibition stands for how much of the control response was suppressed. With `CNc1cc(Nc2cccn(-c3cc(C)nn3C)c2=O)nc2c(C(=O)N[C@H]3C[C@H]3F)cnn12` [I-341], in assay [1], the Kd is 0.2 to 1 nM. Also, the inhibition at 10 µM in assay [2] (compound at 10 μM, ATP 10 μM) was under 50%; in assay [3] (compound at 10 μM, ATP 10 μM), under 50%.

In turn, `CNc1cc(Nc2cccn(C(C)C)c2=O)nc2c(C(=O)N[C@@H]3CC[C@@H]3O)cnn12` [I-978] had a Kd in assay [1] of 0.2 to 1 nM. In addition, the inhibition at 10 µM in assay [2] (10 μM compound, 10 μM ATP) was under 50%; in assay [3] (10 μM compound, 10 μM ATP) it was under 50%.

The compound `CNc1cc(-c2cn(CCN3CCOCC3)c3ncccc23)nc2c(C(=O)N[C@H]3COC[C@H]3O)cnn12` (stereo in doubt) [I-791, N-(4-hydroxytetrahydrofuran-3-yl)-7-(methylamino)-5-(1-(2-morpholinoethyl)-1H-pyrrolo[2,3-b]pyridin-3-yl)pyrazolo[1,5-a]pyrimidine-3-carboxamide] returned a Kd in assay [1] of 0.2 to 1 nM. Further, the inhibition at 10 µM in assay [2] (compound at 10 μM, ATP 10 μM) was under 50%; in assay [3] (compound at 10 μM, ATP 10 μM), under 50%.

For `CNc1cc(Nc2cccn(-c3ccon3)c2=O)nc2c(C(N)=O)cnn12` [I-43, 5-((1-(isoxazol-3-yl)-2-oxo-1,2-dihydropyridin-3-yl)amino)-7-(methylamino)pyrazolo[1,5-a]pyrimidine-3-carboxamide], in assay [1], the Kd is under 0.2 nM. Moreover, the inhibition at 10 µM was under 50% in assay [2] (compound at 10 μM, ATP 10 μM) and under 50% in assay [3] (compound at 10 μM, ATP 10 μM).

In turn, `CNc1cc(Nc2cccn(C3CCCN(C)C3)c2=O)nc2c(C(=O)NC3CC3)cnn12` (stereo not drawn) [I-471] yielded a Kd in assay [1] of 0.2 to 1 nM. The inhibition at 10 µM in assay [2] (compound at 10 μM, ATP 10 μM) was under 50%; in assay [3] (compound at 10 μM, ATP 10 μM) it was under 50%.

With `CNc1cc(Nc2cccnc2OC2CC2)nc2c(C(=O)N[C@H]3C[C@@H]3O)cnn12` [I-439, 5-((2-cyclopropoxypyridin-3-yl)amino)-N-((1S,2S)-2-hydroxycyclopropyl)-7-(methylamino)pyrazolo[1,5-a]pyrimidine-3-carboxamide], the Kd in assay [1] lay in the range of 0.2 to 1 nM. Further, the inhibition at 10 µM in assay [2] (compound at 10 μM, ATP 10 μM) is under 50%; in assay [3] (compound at 10 μM, ATP 10 μM), under 50%.

With `CNc1cc(Nc2cc(Cl)cnc2OC(C)C)nc2c(C(N)=O)cnn12` [I-78], in assay [1], the Kd was under 0.2 nM. Moreover, the inhibition at 10 µM in assay [2] (compound at 10 μM, ATP 10 μM) was under 50%; in assay [3] (compound at 10 μM, ATP 10 μM), under 50%.

In assay [1], `CNc1cc(Nc2cc(Cl)cnc2OC(C)C)nc2c(C(=O)NC3CC3)cnn12` [I-150] came in with a Kd of 0.2 to 1 nM. The inhibition at 10 µM is under 50% in assay [2] (compound at 10 μM, ATP 10 μM) and under 50% in assay [3] (compound at 10 μM, ATP 10 μM).

In assay [1], `CNc1cc(Nc2cccn([C@H]3CCC[C@@H]3OC)c2=O)nc2c(C(=O)NC3CC3)cnn12` [I-403] came in with a Kd of 0.2 to 1 nM. Further, the inhibition at 10 µM in assay [2] (compound at 10 μM, ATP 10 μM) was under 50%; in assay [3] (compound at 10 μM, ATP 10 μM), under 50%.

On to `CNc1cc(Nc2cc(C)cn(-c3ccn(C)n3)c2=O)nc2c(C(=O)NC3CC3)cnn12` [I-271], for which the Kd in assay [1] was 0.2 to 1 nM. The inhibition at 10 µM was under 50% in assay [2] (compound at 10 μM, ATP 10 μM) and under 50% in assay [3] (compound at 10 μM, ATP 10 μM).

In turn, `CNc1cc(-c2c[nH]c3c(C4CCOCC4)cc(Cl)cc23)nc2c(C(=O)NC3CC3)cnn12` [I-197] registered a Kd in assay [1] of 0.2 to 1 nM. In addition, the inhibition at 10 µM in assay [2] (compound at 10 μM, ATP 10 μM) was under 50%; in assay [3] (compound at 10 μM, ATP 10 μM) it was under 50%.

`CNc1cc(-c2cn(CCN3CCOCC3)c3ncccc23)nc2c(C(=O)N[C@H]3CC[C@@H]3O)cnn12` [I-836] returned a Kd in assay [1] of 0.2 to 1 nM. Moreover, the inhibition at 10 µM in assay [2] (10 μM compound, 10 μM ATP) is under 50%; in assay [3] (10 μM compound, 10 μM ATP), under 50%.

For the compound `CNc1cc(Nc2cccn(-c3ccc(C4CCN(C)CC4)cc3)c2=O)nc2c(C(=O)N[C@H]3C[C@H]3F)cnn12` [I-389], the Kd in assay [1] was under 0.2 nM. In addition, the inhibition at 10 µM in assay [2] (compound at 10 μM, ATP 10 μM) is under 50%; in assay [3] (compound at 10 μM, ATP 10 μM) it was under 50%.

In turn, `CNc1cc(-c2cn(CCN3CCN(C)CC3)c3ncccc23)nc2c(C(=O)N[C@@H]3CC[C@H]3OC)cnn12` [I-953] registered a Kd in assay [1] of 0.2 to 1 nM. The inhibition at 10 µM in assay [2] (10 μM compound, 10 μM ATP) is under 50%; in assay [3] (10 μM compound, 10 μM ATP), under 50%.

Turning to `CNc1cc(Nc2cccn(C3CCN(C)CC3)c2=O)nc2c(C(=O)NCC(C)(C)CO)cnn12` [I-542], the Kd in assay [1] fell in the range of 0.2 to 1 nM. Further, the inhibition at 10 µM is under 50% in assay [2] (compound at 10 μM, ATP 10 μM) and under 50% in assay [3] (compound at 10 μM, ATP 10 μM).

`CNc1cc(Nc2cccn([C@H]3CCC[C@@H](OC)C3)c2=O)nc2c(C(=O)N[C@H]3CC[C@@H]3OC)cnn12` [I-1125]: the Kd in assay [1] was over 10 nM. Besides, the inhibition at 10 µM in assay [2] (10 μM compound, 10 μM ATP) was under 50%; in assay [3] (10 μM compound, 10 μM ATP), under 50%.

For the compound `CNc1cc(Nc2cccn3cnnc23)nc2c(C(=O)N[C@@H]3CC[C@@H]3O)cnn12` [I-662], the Kd in assay [1] is under 0.2 nM. Also, the inhibition at 10 µM was under 50% in assay [2] (compound at 10 μM, ATP 10 μM) and under 50% in assay [3] (compound at 10 μM, ATP 10 μM).

On to `CNc1cc(Nc2cccn(-c3ncc(OC)cc3F)c2=O)nc2c(C(=O)NC3CC3)cnn12` [I-672], for which the Kd in assay [1] is under 0.2 nM. Moreover, the inhibition at 10 µM in assay [2] (compound at 10 μM, ATP 10 μM) was under 50%; in assay [3] (compound at 10 μM, ATP 10 μM) it was under 50%.

Compound `CNc1cc(Nc2cccn([C@@H]3CCCOC3)c2=O)nc2c(C(=O)N[C@H]3[C@@H]4COC[C@@H]43)cnn12` [I-650] had a Kd in assay [1] of 1 to 10 nM. For the same compound, the inhibition at 10 µM in assay [2] (compound at 10 μM, ATP 10 μM) is under 50%; in assay [3] (compound at 10 μM, ATP 10 μM), under 50%.

With `NC(=O)c1cnn2c(N)cc(Nc3cccc(N4CCCC4=O)n3)nc12` [I-58], the Kd in assay [1] was under 0.2 nM. The inhibition at 10 µM in assay [2] (compound at 10 μM, ATP 10 μM) is 50 to 70%; in assay [3] (compound at 10 μM, ATP 10 μM), under 50%.

The compound `CNc1cc(Nc2cccc([C@@H]3CCCOC3)n2)nc2c(C(=O)N[C@H]3CC[C@H]3O)cnn12` [I-644] had a Kd in assay [1] of under 0.2 nM. Further, the inhibition at 10 µM was under 50% in assay [2] (compound at 10 μM, ATP 10 μM) and under 50% in assay [3] (compound at 10 μM, ATP 10 μM).

As for `CNc1cc(Nc2cccc3ocnc23)nc2c(C(=O)N[C@H]3COC[C@H]3O)cnn12` [I-755], the Kd in assay [1] was under 0.2 nM. Further, the inhibition at 10 µM is under 50% in assay [2] (compound at 10 μM, ATP 10 μM) and under 50% in assay [3] (compound at 10 μM, ATP 10 μM).

In the case of `CNc1cc(-n2cc(N3CCCC3)c3ncccc32)nc2c(C(=O)NC3CC3)cnn12` [I-552], the Kd in assay [1] lay within 1 to 10 nM. In addition, the inhibition at 10 µM is under 50% in assay [2] (compound at 10 μM, ATP 10 μM) and under 50% in assay [3] (compound at 10 μM, ATP 10 μM).

Regarding `CNc1cc(Nc2cccn(-c3ccn(C4CC4)n3)c2=O)nc2c(C(N)=O)cnn12` [I-20], in assay [1], the Kd was under 0.2 nM. For the same compound, the inhibition at 10 µM in assay [2] (compound at 10 μM, ATP 10 μM) is under 50%; in assay [3] (compound at 10 μM, ATP 10 μM), under 50%.

In turn, `CNc1cc(-c2nn(C3CCOC3)c3ncccc23)nc2c(C(=O)N[C@H]3C[C@H]3F)cnn12` (stereo partly drawn) [I-452] returned a Kd in assay [1] of under 0.2 nM. The inhibition at 10 µM in assay [2] (compound at 10 μM, ATP 10 μM) was under 50%; in assay [3] (compound at 10 μM, ATP 10 μM), under 50%.

For the compound `CNc1cc(-c2cn(C(C)C)c3ncc(Cl)cc23)nc2c(C(=O)NC3CCC3)cnn12` [I-273, 5-(5-chloro-1-isopropyl-1H-pyrrolo[2,3-b]pyridin-3-yl)-N-cyclobutyl-7-(methylamino)pyrazolo[1,5-a]pyrimidine-3-carboamide], the Kd in assay [1] fell in the range of 1 to 10 nM. Moreover, the inhibition at 10 µM in assay [2] (compound at 10 μM, ATP 10 μM) was under 50%; in assay [3] (compound at 10 μM, ATP 10 μM) it was under 50%.

Consider `CNc1cc(Nc2cccc([C@H]3CCCCO3)n2)nc2c(C(=O)N[C@@H]3CC[C@@H]3O)cnn12` [I-611], for which the Kd in assay [1] is under 0.2 nM. The inhibition at 10 µM was under 50% in assay [2] (compound at 10 μM, ATP 10 μM) and under 50% in assay [3] (compound at 10 μM, ATP 10 μM).

The compound `CNc1cc(Nc2cccn([C@H]3CC[C@H](OC)CC3)c2=O)nc2c(C(=O)N[C@H]3COC[C@H]3O)cnn12` [I-746] came in with a Kd in assay [1] of 0.2 to 1 nM. Moreover, the inhibition at 10 µM in assay [2] (compound at 10 μM, ATP 10 μM) was under 50%; in assay [3] (compound at 10 μM, ATP 10 μM) it was under 50%.

For the compound `CNc1cc(Nc2cccn(C3CCCCC3)c2=O)nc2c(C(=O)NCC(C)CO)cnn12` (stereo not drawn) [I-944], the Kd in assay [1] was under 0.2 nM. Further, the inhibition at 10 µM was under 50% in assay [2] (10 μM compound, 10 μM ATP) and under 50% in assay [3] (10 μM compound, 10 μM ATP).
